Test results reported in patent US9206186B2, “2-phenoxy- and 2-phenylsulfonamide derivatives with CCR3 antagonistic activity for the treatment of inflammatory or immunological disorders” (AXIKIN PHARMACEUTICALS, INC., priority 2003, dated 2015).
Counter-ions that a name gives are not always drawn.

How the values were obtained:
[1] = target: T1, Human CCR3 (Homo sapiens, UniProt P51677); test: Calcium mobilization assay (Ca2+), eotaxin-stimulated human CCR3-transformed K562 cells; assay type: cell-based; conditions: compounds of about 40 to 90% purity, read-out: Activity grade IC50
T1 construct: The cloned CCR3 cDNA was constructed with pcDNA3 vector and transfected into a K562 cell line; expressed in transfected cells
T1 sequence (P51677 1-355): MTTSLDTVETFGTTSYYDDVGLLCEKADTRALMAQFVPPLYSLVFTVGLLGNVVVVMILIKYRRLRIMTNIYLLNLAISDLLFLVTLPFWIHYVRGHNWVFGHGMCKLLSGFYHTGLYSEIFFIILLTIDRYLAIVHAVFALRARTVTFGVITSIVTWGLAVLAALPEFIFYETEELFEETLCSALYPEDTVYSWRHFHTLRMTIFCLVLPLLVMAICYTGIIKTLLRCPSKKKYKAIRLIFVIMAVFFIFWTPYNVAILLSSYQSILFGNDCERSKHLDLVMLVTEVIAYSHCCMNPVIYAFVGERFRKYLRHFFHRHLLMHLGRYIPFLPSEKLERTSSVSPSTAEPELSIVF
Experimental: • Human CCR3-transformed K562 cells were used. The cloned CCR3 cDNA was constructed with pcDNA3 vector and transfected into a K562 cell line. The human CCR3-transformed K562 cells were maintained in RPMI-1640 (Cat.#22400-089, Life Technologies) supplemented with 10% FCS (Cat.#A-1115-L, Hyclone), 55 μM 2-mercaptoethanol (Cat.#21985-023, Life Technologies), 1 mM sodium pyruvate (Cat.#11360-070, Life Technologies), 100 units/ml of penicillin G and 100 μg/ml of streptomycin (Cat.#15140-122, Life Technologies), and 0.4 mg/ml of Geneticin (Cat.#10131-035, Life Technologies) (hereinafter called “culture medium”). Before the receptor binding assay, cells were pretreated with 5 mM sodium butyrate (Cat.#193-01522, Wako)-containing the culture medium (2×10^5 cells/ml) for 20-24 hours to increase the expression of CCR3. (2) Receptor Binding Assay • Butyrate-pretreated cells, suspended in binding buffer (25 mM HEPES pH 7.6, 1 mM CaCl2, 5 mM MgCl2, 0.5% BSA, 0.1% NaN3) at a cell density of 2×10^6 cells/ml, were added into 60 μl/well in the 96-well round bottom polypropylene plate (Cat.#3365, Costar). Compounds, diluted with the binding buffer (4-times higher concentration of the final concentration), were added into 30 μl/well in the polypropylene plate. [^125I]-labeled human eotaxin (Cat.#IM290, Amersham Pharmacia Biotech), diluted with the binding buffer at the concentration of 0.4 nM (final concentration; 0.1 nM), was added into 30 μl/well in the polypropylene plate. Total 120 μl/well of binding reaction mixture (60 μl/well of cell suspension, 30 μl/well of compound solution, and 30 μl/well of [^125I]-labeled eotaxin) were incubated in the polypropylene plate for 1 hour at room temperature after the incubation, 100 μl/well of the reaction mixture was transferred to a filtration plate (Cat.#MAFB-N0B, Millipore), and washed with the washing buffer (25 mM HEPES pH 7.6, 1 mM CaCl2, 5 mM MgCl2, 0.5% BSA, 0.1% NaN3, 0.5 M NaCl) twice. The 96-well filtration plate was pretreated with 100 μl/well of 0.5% polyethylenimine (Cat.#P-3143, Sigma) for 2-4 hours at room temperature and washed with the washing buffer twice before use. The non-specific binding was determined by parallel incubation in the presence of 500 nM of non-labeled eotaxin (Cat.#23209, Genzyme Techne). The radioactivities remained on the filter were measured by liquid scintillation counter (TopCount™, Packard) after an addition of 45 μl/well of scintillant (Microscint20, Cat.#6013621, Packard). The inhibition percent at each concentration of compound was calculated, and IC50 values were determined from the inhibition curve. [Determination of IC50 Values of Compounds in Calcium Mobilization Assay] (1) Cell • Human CCR3-transformed K562 cells were used. The human CCR3-transformed K562 cells were maintained in RPMI-1640 supplemented with 10% FCS, 55 μM 2-mercaptoethanol (Cat.#21985-023, Life Technologies), 1 mM sodium pyruvate, 100 units/ml of penicillin G and 100 μg/ml of streptomycin, and 0.4 mg/ml of Geneticin. Before the calcium mobilization assay, cells were pretreated with 5 mM sodium butyrate-containing the culture medium (2×10^5 cells/ml) for 20-24 hours to increase the expression of CCR3. (2) Calcium Mobilization Assay • Butyrate-pretreated cells were loaded with Fluo-3AM (Cat.#F-1242, Molecular Probes) in loading buffer (Hanks' solution Cat.#05906 Nissui, 20 mM HEPES pH 7.6, 0.1% BSA, 1 mM probenecid Cat.#P-8761 Sigma, 1 μM Fluo-3AM, 0.01% pluronic F-127 Cat.#P-6866 Molecular Probes) at a cell density of 1×10^7 cells/ml. Then, cells were washed with calcium assay buffer (Hanks' solution Cat.#05906 Nissui, 20 mM HEPES pH 7.6, 0.1% BSA, 1 mM Probenecid Cat.#P-8761 Sigma). The cell suspension (3.3×10^6 cells/ml) was added into 60 μl/well in the 96-well clear bottom black plate (Cat.#3904, Costar). Compounds, diluted (5-times concentration of the final concentration) with the calcium assay buffer, were added into 20 μl/well in the plate 10 minutes before assay. […]

Structure (SMILES)	IC50 [1]	melting point
N#Cc1ccc(Oc2cc(Cl)cc(Cl)c2)c(S(=O)(=O)N[C@H]2CN3CCC2CC3)c1 [Example 1-1, N—(R)-(+)-(1-aza-bicyclo[2.2.2]oct-3-yl)-5-cyano-2-(3,5-dichloro-phenoxy)-benzenesulfonamide]	< 100 nM	–
CN(C)CCN(CCN1C(=O)CCC1=O)S(=O)(=O)c1cc(C#N)ccc1Oc1cc(Cl)cc(Cl)c1 [Example 1-2, 5-cyano-2-(3,5-dichloro-phenoxy)-N-(2-dimethylamino-ethyl)-N-[2-(2,5-dioxo-pyrrolidin-1-yl)-ethyl]-benzenesulfonamide]	< 100 nM	–
N#Cc1ccc(Oc2cc(Cl)cc(Cl)c2)c(S(=O)(=O)N2CCNCC2Cn2cncn2)c1 (stereo not shown) [Example 1-4, 4-(3,5-dichlorophenoxy)-3-{[2-(1H-1,2,4-triazol-1-ylmethyl)-1-piperazinyl]sulfonyl}benzonitrile hydrochloride]	< 100 nM	–
N#Cc1ccc(Oc2cc(Cl)cc(Cl)c2)c(S(=O)(=O)N2CCCCC2)c1 [Example 1-5]	> 500 nM	171 to 172 °C
N#Cc1ccc(Oc2cc(Cl)cc(Cl)c2)c(S(=O)(=O)N2CC3CCN(Cc4ccccc4)C3C2)c1 (stereo not shown) [Example 1-6]	< 100 nM	–
CS(=O)(=O)NCC1CNCCN1S(=O)(=O)c1cc(C#N)ccc1Oc1cc(Cl)cc(Cl)c1 (stereo not shown) [Example 1-9]	< 100 nM	–
COC(=O)[C@@H]1C[C@H](N2CCCC2)CN1S(=O)(=O)c1cc(C#N)ccc1Oc1cc(Cl)cc(Cl)c1 [Example 1-13]	< 100 nM	–
COC(=O)C1CNCCCN1S(=O)(=O)c1cc(C#N)ccc1Oc1cc(Cl)cc(Cl)c1 (stereo not shown) [Example 1-22]	< 100 nM	–
CS(=O)(=O)NCC1CN(S(=O)(=O)c2cc(C#N)ccc2Oc2cc(Cl)cc(Cl)c2)CCCN1 (stereo not shown) [Example 1-28]	< 100 nM	–
CC(=O)c1ccc(Oc2cc(Cl)cc(Cl)c2)c(S(=O)(=O)N2CCNCC2)c1 [Example 1-31]	< 100 nM	169 to 170 °C
N#Cc1ccc(Oc2cc(Cl)cc(Cl)c2)c(S(=O)(=O)N[C@@H]2CN3CCC2CC3)c1 [Example 1-32]	< 100 nM	–
CC(C)(O)[C@@H]1CCCN1C1CCN(S(=O)(=O)c2cc(C#N)ccc2Oc2cc(Cl)cc(Cl)c2)CC1 [Example 1-34]	< 100 nM	103 °C
N#Cc1ccc(Oc2cc(Cl)cc(Cl)c2)c(S(=O)(=O)N2CCCCC2CN2CCC(O)C2)c1 (stereo not shown) [Example 1-35]	< 100 nM	–
N#Cc1ccc(Oc2cc(Cl)cc(Cl)c2)c(S(=O)(=O)N2CCNC(Cn3ncnn3)C2)c1 (stereo not shown) [Example 1-36]	< 100 nM	–
CCN1CCCN(S(=O)(=O)c2cc(C#N)ccc2Oc2cc(Cl)cc(Cl)c2)C(C(=O)OC)C1 (stereo not shown) [Example 1-39]	< 100 nM	–
N#Cc1ccc(Oc2cc(Cl)cc(Cl)c2)c(S(=O)(=O)N(CCN2CCCC2)C2CCCC2)c1 [Example 1-42]	< 100 nM	–
N#Cc1ccc(Oc2cc(Cl)cc(Cl)c2)c(S(=O)(=O)N2CCC(N3CCCC3)C(CN3C(=O)CCC3=O)C2)c1 (stereo not shown) [Example 1-44]	< 100 nM	121 °C
N#Cc1ccc(Oc2cc(Cl)cc(Cl)c2)c(S(=O)(=O)N2CCC(N3CCC[C@H]3CO)CC2)c1 [Example 1-45]	< 100 nM	124 °C

Next, values leading:

IC50 [1]	melting point	Structure (SMILES)
< 100 nM	–	N#Cc1ccc(Oc2cc(Cl)cc(Cl)c2)c(S(=O)(=O)N2CCN[C@@H](Cc3c[nH]c4ccccc34)C2)c1 [Example 1-3, 4-(3,5-dichloro-phenoxy)-3-[(3S)-(1H-indol-3-ylmethyl)-piperazine-1-sulfonyl]-benzonitrile]
< 100 nM	–	CS(=O)(=O)NCC1CN(S(=O)(=O)c2cc(C#N)ccc2Oc2cc(Cl)cc(Cl)c2)CCN1 (stereo not shown) [Example 1-7]
< 100 nM	–	CC(=O)NCC1CN(S(=O)(=O)c2cc(C#N)ccc2Oc2cc(Cl)cc(Cl)c2)CCN1 (stereo not shown) [Example 1-8]
< 100 nM	–	CC(=O)NCC1CNCCN1S(=O)(=O)c1cc(C#N)ccc1Oc1cc(Cl)cc(Cl)c1 (stereo not shown) [Example 1-10]
< 100 nM	137 to 139 °C	N#Cc1ccc(Oc2cc(Cl)cc(Cl)c2)c(S(=O)(=O)N2CCC(N3C[C@H](O)[C@@H](O)C3)CC2)c1 [Example 1-11]
100 to 500 nM	–	COC(=O)C1CN(S(=O)(=O)c2cc(C#N)ccc2Oc2cc(Cl)cc(Cl)c2)CCCN1 (stereo not shown) [Example 1-12]
< 100 nM	155 to 156 °C	N#Cc1ccc(Oc2cc(Cl)cc(Cl)c2)c(S(=O)(=O)N2CC[C@H](NCCO)C2)c1 [Example 1-16]
< 100 nM	116 to 117 °C	N#Cc1ccc(Oc2cc(Cl)cc(Cl)c2)c(S(=O)(=O)N2CCNC[C@@H]2Cc2c[nH]c3ccccc23)c1 [Example 1-26]
< 100 nM	–	N#Cc1ccc(Oc2cc(Cl)cc(Cl)c2)c(S(=O)(=O)N2CCNCC2CN2C(=O)CCC2=O)c1 (stereo not shown) [Example 1-27]
< 100 nM	183 to 184 °C	CS(=O)(=O)NCC1CNCCCN1S(=O)(=O)c1cc(C#N)ccc1Oc1cc(Cl)cc(Cl)c1.Cl (stereo not shown) [Example 1-29]
100 to 500 nM	224 to 225 °C	N#Cc1ccc(Oc2cc(Cl)cc(Cl)c2)c(S(=O)(=O)N2CCC(N3CCC[C@H]3C(=O)O)CC2)c1 [Example 1-33]
< 100 nM	184 to 185 °C (dec.)	Cl.N#Cc1ccc(Oc2cc(Cl)cc(Cl)c2)c(S(=O)(=O)N2CCNC(Cn3cncn3)C2)c1 (stereo not shown) [Example 1-37]
< 100 nM	123 to 125 °C	N#Cc1ccc(Oc2cc(Cl)cc(Cl)c2)c(S(=O)(=O)N2CCNC(CN3C(=O)CCC3=O)C2)c1 (stereo not shown) [Example 1-43]
< 100 nM	157 °C	N#Cc1ccc(Oc2cc(Cl)cc(Cl)c2)c(S(=O)(=O)N2CCC[C@H]2CN2CCC[C@H]2CO)c1 [Example 1-46]
> 500 nM	–	N#Cc1ccc(Oc2cc(Cl)cc(Cl)c2)c(S(=O)(=O)C2CCNCC2)c1 [Example 2-1, 4-(3,5-Dichloro-phenoxy)-3-(piperidine-4-sulfonyl)-benzonitrile]
